Experimental data from patent publication US20150231236A1, “METHODS FOR TREATING PATIENTS WITH HYPERCHOLESTEROLEMIA THAT IS NOT ADEQUATELY CONTROLLED BY MODERATE-DOSE STATIN THERAPY” (Regeneron Pharmaceuticals, Inc., priority 2014, published 2015).

Experiments:
[1] = test system: patients with hypercholesterolemia at high CV risk not adequately controlled with rosuvastatin (10 mg or 20 mg); assay: Example 3: randomized, double-blind trial, lipid efficacy of mAb316P add-on to rosuvastatin vs EZE add-on or rosuvastatin dose doubling; assay type: in vivo, human; settings: for Proportion of Patients Reaching LDL-C goal (%) / LDL-C W24 % change from baseline, LS mean (SE): week 24; for Proportion of Patients Reaching LDL-C goal (%): LDL-C <70 mg/dL very high risk or <100 mg/dL high risk; for LDL-C W24 % change from baseline, LS mean (SE): ITT population, treatment arm as labelled
Procedure: The present study was a randomized, double-blind, active-comparator, parallel-group study in patients at high CV risk with non-FH or heFH who are not adequately controlled with rosuvastatin (10 mg or 20 mg) with or without other lipid-modifying therapy (LMT) (excluding EZE). The study design is illustrated in FIG. 2. Patients who entered the study were taking either rosuvastatin 10 mg or rosuvastatin 20 mg. The former patients were randomized to 1 of 3 treatment arms (arms 1 to 3); the latter patients were randomized to 1 of 3 treatment arms (arms 4 to 6). The treatment arms are as follows:
(B) a double-blind treatment period of 24 weeks. […] The patient/caregiver administered subsequent injections outside of the clinic according to the dosing schedule. […] The last dose of daily oral study drugs was administered at week 24.
The first injection of study drug was administered at the clinical site, as soon as possible after the patient was randomized into the study. The patient was monitored at the clinical site for at least 30 minutes following the first injection. The patient/caregiver administered subsequent injections outside of the clinic, according to the dosing schedule.
The primary efficacy endpoint was the percent change in calculated LDL-C from baseline to week 24, which is defined as: 100× (calculated LDL-C value at week 24−calculated LDL-C value at baseline)/calculated LDL-C value at baseline. The baseline calculated LDL-C value was the last LDL-C level obtained before the first double-blind study drug injection. The calculated LDL-C at week 24 was the LDL-C level obtained within the week 24 analysis window and during the main efficacy period. The main efficacy period is defined as the time from the first double-blind study drug injection up to 21 days after the last double-blind study drug injection or up to the upper limit of the week 24 analysis window, whichever comes first.
Total-C, HDL-C, TG, ApoB, ApoA-1, and Lp(a) were directly measured by a central laboratory. LDL-C was calculated using the Friedewald formula. […] Non-HDL-C was calculated by subtracting HDL-C from the total-C. Ratio ApoB/ApoA-1 was calculated.
For clarification, the ITT analysis is defined for patients in the ITT population and includes all endpoint assessments in an analysis window, regardless of study treatment dosing status (i.e. includes post-treatment assessments). The on-treatment analysis is defined for patients in the mITT population and includes all endpoint assessments from the first double-blind study drug (capsule or injection, whichever comes first) up to 21 days after the last double-blind study drug injection or 3 days after the last capsule intake, whichever comes first (i.e. includes assessments in the efficacy treatment period).

[2] = test system: patients with hypercholesterolemia at high CV risk not adequately controlled with rosuvastatin (10 mg or 20 mg); assay: Example 3: safety, treatment-emergent adverse events in pooled treatment groups; settings: Safety Population; pooled treatment groups
[3] = Week 4, baseline rosuvastatin 10 mg
[4] = Week 4, baseline rosuvastatin 20 mg
[5] = Week 8, baseline rosuvastatin 10 mg
[6] = Week 8, baseline rosuvastatin 20 mg
[7] = Week 12, baseline rosuvastatin 10 mg
[8] = Week 12, baseline rosuvastatin 20 mg
[9] = Week 16, baseline rosuvastatin 10 mg
[10] = Week 16, baseline rosuvastatin 20 mg
[11] = Week 24, baseline rosuvastatin 10 mg
[12] = Week 24, baseline rosuvastatin 20 mg

SMILES: CC(C)c1nc(N(C)S(C)(=O)=O)nc(-c2ccc(F)cc2)c1/C=C/[C@@H](O)C[C@@H](O)CC(=O)O [rosuvastatin, reference compound]
- Proportion of Patients Reaching LDL-C goal (%) ([1]; Baseline Rosuvastatin 10 mg): 45.0%
- Proportion of Patients Reaching LDL-C goal (%) ([1]; Baseline Rosuvastatin 20 mg): 40.1%
- Calculated LDL-C LS mean (SE) Value ([1]; Baseline, baseline rosuvastatin 10 mg): 105.9 (5.2) mg/dL
- Calculated LDL-C LS mean (SE) Value ([1]; Baseline, baseline rosuvastatin 20 mg): 113.7 (6.0) mg/dL
- LDL-C W24 % change from baseline, LS mean (SE) ([1]; listed as RSV 20): −16.3%
- LDL-C W24 % change from baseline, LS mean (SE) ([1]; listed as RSV 40): −15.9%
- Calculated LDL-C LS mean (SE) Value [1, 3]: 89.1 (3.6) mg/dL
- Calculated LDL-C LS mean (SE), % Change from Baseline [1, 3]: −13.1 (3.2) %
- Calculated LDL-C LS mean (SE), Change from Baseline [1, 3]: −16.2 (3.6)
- Calculated LDL-C LS mean (SE) Value [1, 4]: 92.0 (3.4) mg/dL
- Calculated LDL-C LS mean (SE), % Change from Baseline [1, 4]: −20.0 (5.3) %
- Calculated LDL-C LS mean (SE), Change from Baseline [1, 4]: −25.1 (3.4)
- Calculated LDL-C LS mean (SE) Value [1, 5]: 85.4 (4.3) mg/dL
- Calculated LDL-C LS mean (SE), % Change from Baseline [1, 5]: −17.0 (3.8) %
- Calculated LDL-C LS mean (SE), Change from Baseline [1, 5]: −19.9 (4.3)
- Calculated LDL-C LS mean (SE) Value [1, 6]: 91.9 (4.3) mg/dL
- Calculated LDL-C LS mean (SE), % Change from Baseline [1, 6]: −21.2 (5.7) %
- Calculated LDL-C LS mean (SE), Change from Baseline [1, 6]: −25.2 (4.3)
- Calculated LDL-C LS mean (SE) Value [1, 7]: 85.7 (4.1) mg/dL
- Calculated LDL-C LS mean (SE), % Change from Baseline [1, 7]: −17.1 (4.1) %
- Calculated LDL-C LS mean (SE), Change from Baseline [1, 7]: −19.6 (4.1)
- Calculated LDL-C LS mean (SE) Value [1, 8]: 90.4 (4.3) mg/dL
- Calculated LDL-C LS mean (SE), % Change from Baseline [1, 8]: −22.1 (5.3) %
- Calculated LDL-C LS mean (SE), Change from Baseline [1, 8]: −26.6 (4.3)
- Calculated LDL-C LS mean (SE) Value [1, 9]: 83.6 (4.7) mg/dL
- Calculated LDL-C LS mean (SE), % Change from Baseline [1, 9]: −19.3 (4.8) %
- Calculated LDL-C LS mean (SE), Change from Baseline [1, 9]: −21.6 (4.7)
- Calculated LDL-C LS mean (SE) Value [1, 10]: 93.8 (4.8) mg/dL
- Calculated LDL-C LS mean (SE), % Change from Baseline [1, 10]: −18.5 (6.3) %
- Calculated LDL-C LS mean (SE), Change from Baseline [1, 10]: −23.3 (4.8)
- Calculated LDL-C LS mean (SE) Value [1, 11]: 85.4 (4.3) mg/dL
- Calculated LDL-C LS mean (SE), % Change from Baseline [1, 11]: −16.3 (4.1) %
- Calculated LDL-C LS mean (SE), Change from Baseline [1, 11]: −19.9 (4.3)
- Calculated LDL-C LS mean (SE) Value [1, 12]: 95.5 (5.7) mg/dL
- Calculated LDL-C LS mean (SE), % Change from Baseline [1, 12]: −15.9 (7.1) %
- Calculated LDL-C LS mean (SE), Change from Baseline [1, 12]: −21.5 (5.7)
- proportion of patients who reached LDL-C level of <70 mg/dL (1.81 mmol/L) at Week 24 ([1]; baseline rosuvastatin 10 mg regimen): 31.3%
- proportion of patients who reached LDL-C level of <70 mg/dL (1.81 mmol/L) at Week 24 ([1]; baseline rosuvastatin 20 mg regimen): 29.9%
- General Allergic TEAEs [2]: 7 (6.9%) patients (%)
- SOC General disorders and administration site conditions [2]: 10 (9.9%) patients (%)
- SOC Psychiatric disorders [2]: 3 (3.0%) patients (%)
- SOC Respiratory, thoracic and mediastinal disorders [2]: 5 (5.0%) patients (%)
- SOC Skin and subcutaneous tissue disorders [2]: 6 (5.9%) patients (%)
- TEAEs [2]: 68 (67.3%) patients (%)
- Treatment-emergent SAEs [2]: 8 (7.9%) patients (%)
- Treatment-emergent cardiovascular events adjudicated positively [2]: 1 (1.0%) patients (%)
- Treatment-emergent neurocognitive disorders [2]: 2 (2.0%) patients (%)
- Treatment-emergent neurologic disorders [2]: 2 (2.0%) patients (%)
- cough [2]: 3 (3.0%) patients (%)
- discontinued study treatment early due to a treatment emergent adverse event [2]: 5 (5.0%) patients (%)
- injection site reactions (ISRs) [2]: 2 (2.0%) patients (%)
